Results reported in ChEMBL document CHEMBL1151397, “The Alkaloids of Stephania glabra” (1982).

System: Ileum
Assay: Spasmolytic activity in guinea pig ileum assessed as blockade of muscle contractions at 25 ug
Type: functional, Cavia porcellus

SMILES: COc1cc2c3c(c1OC)C1(C=CC(=O)C=C1)C[C@H]3N(C)CC2.Cl [PRONUCIFERINE HYDROCHLORIDE]
- Activity: 75%
